Assays:
Format in all cases: in vivo, rat
[1] = system: rats with controlled cortical impact (CCI) injury; assay: Rotarod test after CCI injury; conditions: for performance on the rotarod test versus vehicle-treated rats: days 1 to 28, P<0.05
Method: (§1) A previously described CCI injury procedure was utilized (Chen et al., 2003). Male Sprague-Dawley rats, which have body weight of 250-300 g, were anaesthetized with sodium pentobarbital (i.p.; 50 mgkg^−1; Rhone Merieux, Harlow, UK) and placed in a stereotaxic frame. A 5-mm craniotomy was performed over the left parietal cortex, centered on the coronal suture and 3 mm lateral to the sagittal suture. Considerable care was taken to avoid injury to the underlying dura. Injury was made using a pneumatic piston with a rounded metal tip (2.5 mm diameter) that was angled 22.5° C. to the vertical so that the tip was perpendicular with the brain surface at the centre of the craniotomy. A velocity of 4 ms^−1 and a deformation depth 2 mm below the dura were used. The bone flap was immediately replaced and sealed, and the scalp was closed with sutures. Body temperature was monitored throughout the surgery by a rectal probe; temperature was maintained at 37.0±0.5° C. using a heated pad. Rats were placed in a heated cage to maintain body temperature, while recovering from anaesthesia.
Baicalein (30 mg kg^−1) dissolved in 10% dimethyl sulphoxide (0.25-0.3 mL) or a corresponding volume of vehicle (10% dimethyl sulphoxide) was administered i.p. immediately following injury or daily for 4 days (immediately, 25, 49 and 73 h) after injury. Behaviour testing using the rotarod, tactile adhesive removal, mNSS and beam walk tests was performed at 28 hours as well as 4, 7, 14, 21 and 28 days post-injury. […]
An accelerating rotarod was used to measure rat motor function and balance (Hamm, 2001). Each rat was placed on the rotarod cylinder, and the time for which the animal remained on the rotarod was measured. […] One hour before CCI, the mean duration on the device was recorded with three rotarod measurements as the pre-injury baseline values. Post-injury latencies were expressed as a percentage of their respective baseline values to reduce inter-animal variability.

IL-1β-positive cells = assay: Immunohistochemistry, IL-1β-positive cells after CCI injury; conditions: single-dose 30 mg kg^-1 i.p.; cortical tissue adjacent to contusion core, 1 day post-injury
Method: as §1, with “[…] Testing after injury was as follows: (1) real-time quantitative RT-PCR analysis for TNF-α, IL-1β and IL-6 mRNA expression at 6 h post-injury (n=7 for each group); (2) FluoroJade B (FJB) staining, TNF-α, IL-1β and IL-6 immunohistochemistry, as well as ELISA at 24 h post-injury” for “Rats were placed in a heated cage”, “assess degenerative neurons and to determine cytokine expression (n=7 for each group). […]” for “maintain body temperature, while recovering from anaesthesia.”

IL-6-positive cells = assay: Immunohistochemistry, IL-6-positive cells after CCI injury; conditions: single-dose 30 mg kg^-1 i.p.; cortical tissue adjacent to contusion core, 1 day post-injury
Method: as §1, with “[…] Testing after injury was as follows: (1) real-time quantitative RT-PCR analysis for TNF-α, IL-1β and IL-6 mRNA expression at 6 h post-injury (n=7 for each group); (2) FluoroJade B (FJB) staining, TNF-α, IL-1β and IL-6 immunohistochemistry, as well as ELISA at 24 h post-injury” for “Rats were placed in a heated cage”, “assess degenerative neurons and to determine cytokine expression (n=7 for each group). […]” for “maintain body temperature, while recovering from anaesthesia.”

SMILES: O=c1cc(-c2ccccc2)oc2cc(O)c(O)c(O)c12 [baicalein]
- rotarod test, multiple-dose versus single-dose treatment ([1]; 30 mg kg^-1 i.p., days 1, 4, 7 and 21 after injury): significantly more effective
- performance on the rotarod test versus vehicle-treated rats ([1]; multiple-dose 30 mg kg^-1 i.p. daily for 4 days): significantly better
- performance on the rotarod test versus vehicle-treated rats ([1]; single-dose 30 mg kg^-1 i.p. immediately after injury): significantly better
- reduction in IL-1β-positive cells relative to vehicle (IL-1β-positive cells): 40%
- reduction in IL-6-positive cells relative to vehicle (IL-6-positive cells): 33%

From patent publication US20100222421A1, “Usage of Baicalein in the Preparation of a Pharmaceutical Composition for the Treatment of Traumatic Brain Injury” (National Defense Medical Center, priority 2009, published 2010)
